Experimental findings from patent publication US5169854A, “N-substituted-furylalkenyl hydroxamic acid and N-hydroxyurea compounds having lipoxygenase inhibitory activity” (Abbott Laboratories, priority 1992, dated 1992) are described below.

One experiment concerns Leukotriene Biosynthesis. Briefly: Inhibition of leukotriene biosynthesis in vivo after oral administration, rat peritoneal anaphylaxis model. The note with it: oral gavage 100 μmol/kg, one hour prior to antigen challenge, peritoneal fluid leukotrienes 15 min after challenge. The protocol: Inhibition of the biosynthesis of leuktrienes in vivo after oral administration of compound was determined using a rat peritoneal anaphylaxis model in a similar manner as that described by Young and coworkers (Young, P. R.; Dyer, R. D.; Carter, G. W. Fed. Proc., Fed. Am. Soc. Exp. Biol. 1985 (44), 1185). In this model rats were injected intraperitoneally (ip) with rabbit antibody to bovine serum albumin (BSA) and three hours later injected ip with BSA to induce an antgen-antibody response. Rats were sacrificed 15 minutes after this challenge and the peritoneal fluids were collected and analyzed for leukotriene levels. Test compounds were administered by gavage one hour prior to the antigen challenge. Percent inhibition values were determined by comparing the treatment group to the mean of the control group.

The next experiment deals with T1, 5-Lipoxygenase (Homo sapiens, UniProt P09917).
T1 sequence (P09917 1-674): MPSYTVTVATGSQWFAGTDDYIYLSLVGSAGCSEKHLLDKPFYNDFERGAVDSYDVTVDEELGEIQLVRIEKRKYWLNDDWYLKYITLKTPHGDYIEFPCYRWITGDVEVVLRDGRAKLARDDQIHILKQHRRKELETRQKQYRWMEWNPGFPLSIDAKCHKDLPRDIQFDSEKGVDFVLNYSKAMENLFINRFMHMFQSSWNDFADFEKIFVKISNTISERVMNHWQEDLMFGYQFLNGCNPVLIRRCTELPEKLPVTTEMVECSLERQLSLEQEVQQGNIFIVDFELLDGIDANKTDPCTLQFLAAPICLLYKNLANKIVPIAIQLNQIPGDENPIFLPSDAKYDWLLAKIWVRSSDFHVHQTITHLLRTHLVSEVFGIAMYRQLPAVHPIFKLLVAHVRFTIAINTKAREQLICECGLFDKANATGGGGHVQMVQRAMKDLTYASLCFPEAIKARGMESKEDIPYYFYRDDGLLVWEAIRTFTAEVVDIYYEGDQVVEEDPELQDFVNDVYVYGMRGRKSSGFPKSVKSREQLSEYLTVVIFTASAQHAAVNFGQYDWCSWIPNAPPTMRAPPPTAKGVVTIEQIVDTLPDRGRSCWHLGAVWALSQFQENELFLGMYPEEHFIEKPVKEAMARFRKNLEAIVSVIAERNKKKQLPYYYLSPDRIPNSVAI
The experiment is described as follows: Inhibition of calcium ionophore A23187-induced LTB4 biosynthesis in human whole blood (5-Lipoxygenase Inhibitory Activity). The experiment is classed as cell-based. Set-up: endogenous in cells; host or cells: human heparinized whole blood (blood leukocytes). The protocol:
Inhibition of leukotriene biosynthesis was evaluated in an assay, involving calcium ionophore-induced LTB4 biosynthesis expressed human whole blood. Human heparinized whole blood was preincubated with test compounds or vehicle for 15 min at 37° C. followed by calcium ionophore A23187 challenge (final concentration of 8.3 μM) and the reaction terminated after 30 min by adding two volumes of methanol containing prostaglandin B2 as an internal recovery standard. The methanol extract was analyzed for LTB4 using a commercially available radioimmunoassay.

For orientation: IC50 means the midpoint of a concentration-inhibition curve. For the compound `CC(/C=C/c1ccc(Oc2ccc(F)cc2)o1)N(O)C(N)=O` (stereo not shown) [Example 1, E-N-[4-(5-(4-Fluorophenoxy)-2-furanyl)but-3-en-2-yl]-N-hydroxyurea], the “Percent Inhibition of Leukotriene Biosynthesis at an Oral Dose of 100 μmol/kg” value with Leukotriene Biosynthesis is 98%. Further, the half-maximal inhibitory concentration (IC50) at 5-Lipoxygenase (human heparinized whole blood, LTB4 by radioimmunoassay, A23187 8.3 μM, 15 min preincubation at 37° C.) was determined as 0.16 µM.
As to `NC(=O)N(O)CC=Cc1ccc(Oc2ccccc2)o1` [Example 2, N-hydroxy-N-[3-(5-phenoxyfur-2-yl)prop-2-enyl]urea], the “Percent Inhibition of Leukotriene Biosynthesis at an Oral Dose of 100 μmol/kg” value in the experiment on Leukotriene Biosynthesis is 99%.
As to “Z-N-[4-(5-(4 -fluorophenoxy)-2-furanyl)-2-fluorobut-3-en-2-yl]-N-hydroxyurea [Example 3]”, the “5-Lipoxygenase Inhibitory Activity, percent inhibition” value on 5-Lipoxygenase (at 0.39 (10^-6 M), human whole blood LTB4) worked out at 77%.
